Source: ChEMBL document CHEMBL1201862, “PubChem BioAssay data set” (2004)
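96-well plates; 48 h exposure; 5 concentrations. Endpoints by linear interpolation between flanking doses. Not reached: highest tested concentration assigned. Abbreviation: GI50, concentration required for 50% inhibition of growth.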 The source made the active and inactive calls. No stated cut-off is given here; in the data, active = GI50 up to about 1.1 µM and inactive = higher.

Tests used:
Test in all cases: DTP human tumour cell line panel, 48 h
SNB-75 = test system: SNB-75
MCF7 = test system: MCF7
NCI-H460 = test system: NCI-H460
HOP-92 = test system: HOP-92
MDA-MB-435 = test system: MDA-MB-435
SK-MEL-28 = test system: SK-MEL-28
SK-MEL-5 = test system: SK-MEL-5
IGROV-1 = test system: IGROV-1
CAKI-1 = test system: CAKI-1
ACHN = test system: ACHN
SK-OV-3 = test system: SK-OV-3
EKVX = test system: EKVX
K562 = test system: K562
SR = test system: SR
SF-539 = test system: SF-539
A549 = test system: A549
CCRF-CEM = test system: CCRF-CEM
NCI-H23 = test system: NCI-H23
HCC 2998 = test system: HCC 2998
OVCAR-5 = test system: OVCAR-5

SMILES	GI50 (SNB-75)	GI50 (MCF7)	GI50 (NCI-H460)	GI50 (HOP-92)	GI50 (MDA-MB-435)	GI50 (SK-MEL-28)	GI50 (SK-MEL-5)	GI50 (IGROV-1)	GI50 (CAKI-1)	GI50 (ACHN)	GI50 (SK-OV-3)	GI50 (EKVX)	GI50 (K562)	GI50 (SR)	GI50 (SF-539)	GI50 (A549)	GI50 (CCRF-CEM)	GI50 (NCI-H23)	GI50 (HCC 2998)	GI50 (OVCAR-5)
CCCCCCCCCCCCCCCCOCC(Cl)CP(=O)(O)OP(=O)(O)OCC1OC(n2cnc3c(N)ncnc32)C(O)C1O (stereo not given)	> 100 µM (inactive)	> 100 µM (inactive)	47.5 µM (inactive)	> 100 µM (inactive)	> 100 µM (inactive)	> 100 µM (inactive)	> 100 µM (inactive)	> 100 µM (inactive)	> 100 µM (inactive)	> 100 µM (inactive)	> 100 µM (inactive)	> 100 µM (inactive)	> 100 µM (inactive)	> 100 µM (inactive)	> 100 µM (inactive)	> 100 µM (inactive)	> 100 µM (inactive)	> 100 µM (inactive)	> 100 µM (inactive)	> 100 µM (inactive)
COc1ccc(CC(C#N)c2cc(OC)c(OC)c(OC)c2)cc1 (stereo not given)	0.0475 µM (active)	< 0.016 µM (active)	0.0409 µM (active)	0.366 µM (active)	< 0.01 µM (active)	0.0619 µM (active)	0.0266 µM (active)	0.0809 µM (active)	0.0455 µM (active)	0.796 µM (active)	0.0474 µM (active)	1.56 µM (inactive)	0.0248 µM (active)	0.0206 µM (active)	0.0436 µM (active)	0.0525 µM (active)	0.0668 µM (active)	0.109 µM (active)	< 0.0416 µM (active)	6.27 µM (inactive)
Cc1ccc(-c2cs/c(=N\c3ccccc3)n2NC(=O)c2ccncc2)cc1	50.6 µM (inactive)	33.3 µM (inactive)	36.3 µM (inactive)	88.5 µM (inactive)	29.4 µM (inactive)	36.6 µM (inactive)	18.7 µM (inactive)	40.3 µM (inactive)	26.4 µM (inactive)	35.3 µM (inactive)	33.7 µM (inactive)	37.3 µM (inactive)	15 µM (inactive)	34.8 µM (inactive)	69 µM (inactive)	31.8 µM (inactive)	36.6 µM (inactive)	31.3 µM (inactive)	75.2 µM (inactive)	40.8 µM (inactive)
C/C=C/[P+](c1ccccc1)(c1ccccc1)c1ccccc1	3.48 µM (inactive)	1.18 µM (inactive)	1.36 µM (inactive)	0.738 µM (active)	0.277 µM (active)	1.29 µM (inactive)	0.378 µM (active)	2.11 µM (inactive)	> 68.1 µM (inactive)	4.56 µM (inactive)	1.42 µM (inactive)	0.296 µM (active)	0.0649 µM (active)	0.381 µM (active)	1.48 µM (inactive)	0.548 µM (active)	0.474 µM (active)	2.06 µM (inactive)	0.24 µM (active)	4.24 µM (inactive)
Cc1nc2cc(/N=N/c3c(O)ccc4ccccc34)ccc2[nH]1	> 72.1 µM (inactive)	21.2 µM (inactive)	34.8 µM (inactive)	24 µM (inactive)	23.1 µM (inactive)	98.6 µM (inactive)	31.9 µM (inactive)	> 45.3 µM (inactive)	26.6 µM (inactive)	32.3 µM (inactive)	> 100 µM (inactive)	> 49.9 µM (inactive)	23.9 µM (inactive)	24.2 µM (inactive)	26.7 µM (inactive)	44.5 µM (inactive)	16.1 µM (inactive)	> 62.2 µM (inactive)	> 50.5 µM (inactive)	> 75.5 µM (inactive)
C=C1C(=O)O[C@@H]2/C=C(/C)[C@@H](OC(C)=O)C[C@@H](O)/C(C)=C\[C@@H](OC(=O)[C@]3(C)O[C@@H]3C)[C@@H]12	19.5 µM (inactive)	5.79 µM (inactive)	26.3 µM (inactive)	12.7 µM (inactive)	15.3 µM (inactive)	10.9 µM (inactive)	11.4 µM (inactive)	16.2 µM (inactive)	3.48 µM (inactive)	11.8 µM (inactive)	45.8 µM (inactive)	11 µM (inactive)	3.34 µM (inactive)	4.6 µM (inactive)	21.2 µM (inactive)	31.2 µM (inactive)	2.38 µM (inactive)	17.3 µM (inactive)	18.2 µM (inactive)	18.6 µM (inactive)
Cc1cc2nc(C=C(C(F)(F)F)C(F)(F)F)sc2cc1C	1.16 µM (inactive)	2.63 µM (inactive)	3.58 µM (inactive)	4.66 µM (inactive)	1.21 µM (inactive)	3.01 µM (inactive)	2.49 µM (inactive)	2.21 µM (inactive)	2.64 µM (inactive)	2.99 µM (inactive)	7.62 µM (inactive)	2.15 µM (inactive)	0.0693 µM (active)	0.0923 µM (active)	1.54 µM (inactive)	4.02 µM (inactive)	0.0333 µM (active)	1.46 µM (inactive)	3.18 µM (inactive)	2.59 µM (inactive)
CSC(=S)Nc1cc(C)ccn1	29 µM (inactive)	> 100 µM (inactive)	85.9 µM (inactive)	79.3 µM (inactive)	> 100 µM (inactive)	> 100 µM (inactive)	16.7 µM (inactive)	20.8 µM (inactive)	> 100 µM (inactive)	70 µM (inactive)	> 100 µM (inactive)	> 100 µM (inactive)	62.5 µM (inactive)	78.2 µM (inactive)	> 100 µM (inactive)	> 100 µM (inactive)	> 100 µM (inactive)	> 100 µM (inactive)	> 100 µM (inactive)	> 100 µM (inactive)
C[C@@H]1C[C@H](O)[C@]2(O)O[C@@H]3C[C@@]4(C=O)[C@@H](CC[C@@H]5[C@@H]4CC[C@]4(C)[C@@H](C6=CC(=O)OC6)CC[C@]54O)C[C@H]3O[C@@H]2O1 [CALOTROPIN]	0.0689 µM (active)	0.0238 µM (active)	0.0187 µM (active)	0.0545 µM (active)	0.0675 µM (active)	0.112 µM (active)	0.0278 µM (active)	0.0209 µM (active)	0.023 µM (active)	0.0188 µM (active)	0.0351 µM (active)	0.0178 µM (active)	0.0365 µM (active)	0.0181 µM (active)	0.0212 µM (active)	0.014 µM (active)	0.0175 µM (active)	0.0188 µM (active)	0.0593 µM (active)	0.126 µM (active)
NC(=O)c1ccc[n+](C2=C([N-]S(=O)(=O)c3ccccc3)C(=O)c3ccccc3C2=O)c1	14.4 µM (inactive)	14.8 µM (inactive)	17.9 µM (inactive)	13.6 µM (inactive)	4.89 µM (inactive)	16 µM (inactive)	5.51 µM (inactive)	11.8 µM (inactive)	22.1 µM (inactive)	13.4 µM (inactive)	29.4 µM (inactive)	14.3 µM (inactive)	64.3 µM (inactive)	33.6 µM (inactive)	18 µM (inactive)	19.3 µM (inactive)	42.6 µM (inactive)	14.9 µM (inactive)	10.3 µM (inactive)	19.1 µM (inactive)
